In brackets after ≈: the same amount, converted by molar mass. Like-named read-outs stand apart in the source and are kept apart here. Ends that are not written are not given here. Peptide text beside a SMILES is read from it. * marks the point of attachment. Acm = CC(=O)NC*
Key:
[1] = test system: Escherichia coli ATCC 25922; format: cell-based
Description: (§1) The bacterial strains used were: Escherichia coli ATCC 25922 and Staphylococcus aureus ATCC 25923. All strains were stored at −70° C. The bacteria were grown in 2% Bacto Peptone water (Difco 1807-17-4). All tests were performed with bacteria in mid-logarithmic growth phase. Determination of the minimum inhibitory concentration (MIC) of the peptides for bacterial strains were performed in 1% Bacto Peptone water. A standard microdilution technique with an inoculum of 2×10^6 CFU/ml was used. All assays were performed in triplets. Since the peptides are positively charged and therefore could adhere to the plastic wells, we controlled the actual concentration of the peptides in the solution by HPLC. There was no difference between the concentration of the peptides before or after adding the solution to the plastic wells.

[2] = test system: Staphylococcus aureus ATCC 25923; format: cell-based
Description: as §1

| Compound | MIC E. coli ([1]; ATCC 25922) [µg/mL] | MIC S. aureus ([2]; ATCC 25923) [µg/mL] | further results |
| --- | --- | --- | --- |
| CSCC[C@H](NC(=O)[C@H](CCCNC(=N)N)NC(=O)[C@H](Cc1c[nH]c2ccccc12)NC(=O)[C@H](CCC(N)=O)NC(=O)[C@H](Cc1c[nH]c2ccccc12)NC(=O)[C@H](CCCNC(=N)N)NC(=O)[C@H](CC(C)C)NC(=O)[C@H](CSCNC(C)=O)NC(=O)[C@H](CCCCN)NC(=O)[C@@H](N)CCCNC(=N)N)C(=O)N[C@@H](CCCNC(=N)N)C(=O)N[C@@H](CCCCN)C(=O)N[C@@H](Cc1ccc(O)cc1)C(=O)NCC(=O)NCC(=O)O [LFM R1, 9 W8 Y13] (H-RKC(Acm)LRWQWRMRKYGG-OH; N-terminus and C-terminus assumed) | 25 (≈ 11.9 µM) | 50 (≈ 23.9 µM) |  |
| CSCC[C@H](NC(=O)[C@H](CCCNC(=N)N)NC(=O)[C@H](Cc1c[nH]c2ccccc12)NC(=O)[C@H](CCC(N)=O)NC(=O)[C@H](Cc1c[nH]c2ccccc12)NC(=O)[C@H](CCCNC(=N)N)NC(=O)[C@H](CCCNC(=N)N)NC(=O)[C@H](CSCNC(C)=O)NC(=O)[C@H](CCCCN)NC(=O)[C@@H](N)Cc1ccccc1)C(=O)N[C@@H](CCCCN)C(=O)N[C@@H](CCCCN)C(=O)N[C@@H](C)C(=O)NCC(=O)N[C@@H](C)C(=O)O [LFB A13] (H-FKC(Acm)RRWQWRMKKAGA-OH) | 50 (≈ 24.7 µM) | >200 |  |
| YRWARWWRR-NH2 [LFM 17-25 A4R2,8, 9W3, 7Y1NH2] | 10 | 5 |  |
| RRWYRWWR-NH2 [LFM 17-24 R1,2, 8 W3, 7Y4NH2] | 5 | 2.5 |  |
| CSCC[C@H](NC(=O)[C@H](CCCNC(=N)N)NC(=O)[C@H](Cc1c[nH]c2ccccc12)NC(=O)[C@H](CCC(N)=O)NC(=O)[C@H](Cc1c[nH]c2ccccc12)NC(=O)[C@H](CCCNC(=N)N)NC(=O)[C@H](CCCNC(=N)N)NC(=O)[C@H](CSCNC(C)=O)NC(=O)[C@@H](N)CCCCN)C(=O)N[C@@H](CCCCN)C(=O)N[C@@H](CCCCN)C(=O)N[C@@H](CC(C)C)C(=O)NCC(=O)N[C@@H](C)C(=O)O [LFB 18-31] (H-KC(Acm)RRWQWRMKKLGA-OH; N-terminus assumed) |  |  | MIC E. coli ATCC 25922 ([1]; ATCC 25922): 80 µg/mL; MIC E. coli ATCC 25922 ([1]; Table 1, value in brackets): 43 µM; MIC E. coli ([1]; Table 11): 80 µg/mL (≈ 41.7 µM); MIC S. aureus ATCC 25923 ([2]; ATCC 25923): 200 µg/mL; MIC S. aureus ATCC 25923 ([2]; Table 1, value in brackets): 108 µM; MIC S. aureus ([2]; Table 11): 200 µg/mL (≈ 104 µM) |
| CSCC[C@H](NC(=O)[C@H](C)NC(=O)[C@H](Cc1c[nH]c2ccccc12)NC(=O)[C@H](CCC(N)=O)NC(=O)[C@H](Cc1c[nH]c2ccccc12)NC(=O)[C@H](CCCNC(=N)N)NC(=O)[C@H](CC(C)C)NC(=O)[C@H](CSCNC(C)=O)NC(=O)[C@H](CCCCN)NC(=O)[C@@H](N)CCC(=O)O)C(=O)N[C@@H](CCCNC(=N)N)C(=O)N[C@@H](CCCCN)C(=O)N[C@@H](Cc1ccc(O)cc1)C(=O)NCC(=O)NCC(=O)O [LFM A9 W8 Y13] (H-EKC(Acm)LRWQWAMRKYGG-OH; N-terminus and C-terminus assumed) | >1000 | >1000 |  |
| CC[C@H](C)[C@H](NC(=O)[C@H](CCCCN)NC(=O)[C@H](Cc1c[nH]c2ccccc12)NC(=O)[C@H](CCC(N)=O)NC(=O)[C@H](Cc1c[nH]c2ccccc12)NC(=O)[C@H](CCC(N)=O)NC(=O)[C@H](CCCNC(=N)N)NC(=O)[C@H](CSCNC(C)=O)NC(=O)[C@H](CCCCN)NC(=O)[C@@H](N)CO)C(=O)N[C@@H](CCCNC(=N)N)C(=O)N[C@@H](CCCNC(=N)N)C(=O)N[C@H](C(=O)N[C@@H](CC(N)=O)C(=O)N1CCC[C@H]1C(=O)O)[C@@H](C)O [LFPW8] (H-SKC(Acm)RQWQWKIRRTNP-OH; N-terminus assumed) |  |  | MIC E. coli ([1]; Table 4): 500 µg/mL (≈ 243 µM); MIC S. aureus ([2]; Table 4, unit assumed): > 1000 µg/mL |
| CSCC[C@H](NC(=O)[C@H](CCCNC(=N)N)NC(=O)[C@H](Cc1c[nH]c2ccccc12)NC(=O)[C@H](CCC(N)=O)NC(=O)[C@H](Cc1c[nH]c2ccccc12)NC(=O)[C@H](CCC(N)=O)NC(=O)[C@H](Cc1ccc(O)cc1)NC(=O)[C@H](CSCNC(C)=O)NC(=O)[C@H](CCCCN)NC(=O)[C@@H](N)CO)C(=O)N[C@@H](CCCNC(=N)N)C(=O)N[C@@H](CCCCN)C(=O)N[C@@H](CC(C)C)C(=O)NCC(=O)N[C@@H](C)C(=O)O [LFGW8, H2N-Ser-Lys-Cys-Tyr-Gln-Trp-Gln-Trp-Arg-Met-Arg-Lys-Leu-Gly-Ala-COOH] (H-SKC(Acm)YQWQWRMRKLGA-OH) |  |  | MIC E. coli ([1]; Table 4): 500 µg/mL (≈ 248 µM); MIC S. aureus ([2]; Table 4, unit assumed): > 1000 µg/mL |
| CSCC[C@H](NC(=O)[C@H](C)NC(=O)[C@H](Cc1c[nH]c2ccccc12)NC(=O)[C@H](CCC(N)=O)NC(=O)[C@H](Cc1c[nH]c2ccccc12)NC(=O)[C@H](CCCNC(=N)N)NC(=O)[C@H](CCCNC(=N)N)NC(=O)[C@H](CSCNC(C)=O)NC(=O)[C@H](CCCCN)NC(=O)[C@@H](N)Cc1ccccc1)C(=O)N[C@@H](CCCCN)C(=O)N[C@@H](CCCCN)C(=O)N[C@@H](CC(C)C)C(=O)NCC(=O)N[C@@H](C)C(=O)O [LFB A9] (H-FKC(Acm)RRWQWAMKKLGA-OH) | 55 (≈ 27.8 µM) | >200 |  |
| CSCC[C@H](NC(=O)[C@H](CCCNC(=N)N)NC(=O)[C@H](Cc1c[nH]c2ccccc12)NC(=O)[C@H](CCC(N)=O)NC(=O)[C@H](Cc1c[nH]c2ccccc12)NC(=O)[C@H](CCCNC(=N)N)NC(=O)[C@H](C)NC(=O)[C@H](CSCNC(C)=O)NC(=O)[C@H](CCCCN)NC(=O)[C@@H](N)Cc1ccccc1)C(=O)N[C@@H](CCCCN)C(=O)N[C@@H](CCCCN)C(=O)N[C@@H](CC(C)C)C(=O)NCC(=O)N[C@@H](C)C(=O)O [LFB A4] (H-FKC(Acm)ARWQWRMKKLGA-OH) |  | >200 |  |
| CSCC[C@H](NC(=O)[C@H](CCCNC(=N)N)NC(=O)[C@H](CCCNC(=N)N)NC(=O)[C@H](CCC(N)=O)NC(=O)[C@H](Cc1c[nH]c2ccccc12)NC(=O)[C@H](CCC(N)=O)NC(=O)[C@H](Cc1ccc(O)cc1)NC(=O)[C@H](CSCNC(C)=O)NC(=O)[C@H](CCCCN)NC(=O)[C@@H](N)CO)C(=O)N[C@@H](CCCNC(=N)N)C(=O)N[C@@H](CCCCN)C(=O)N[C@@H](CC(C)C)C(=O)NCC(=O)N[C@@H](C)C(=O)O [Native LFG, SKCYQWQRRMRKLGA] (H-SKC(Acm)YQWQRRMRKLGA-OH; N-terminus assumed) |  |  | MIC E. coli ([1]; Table 4): 750 µg/mL (≈ 378 µM) |
| CSCC[C@H](NC(=O)[C@H](CCCNC(=N)N)NC(=O)[C@H](Cc1c[nH]c2ccccc12)NC(=O)[C@H](CCC(N)=O)NC(=O)[C@H](Cc1c[nH]c2ccccc12)NC(=O)[C@H](CCCNC(=N)N)NC(=O)[C@H](CCCNC(=N)N)NC(=O)[C@H](CSCNC(C)=O)NC(=O)[C@H](CCCCN)NC(=O)[C@@H](N)CCCCN)C(=O)N[C@@H](CCCCN)C(=O)N[C@@H](CCCCN)C(=O)N[C@@H](CC(C)C)C(=O)NCC(=O)N[C@@H](C)C(=O)O [LFB K1] (H-KKC(Acm)RRWQWRMKKLGA-OH; N-terminus assumed) |  |  | MIC E. coli ATCC 25922 ([1]; ATCC 25922): 60 µg/mL; MIC E. coli ATCC 25922 ([1]; Table 1, value in brackets): 30 µM; MIC E. coli ([1]; Table 12): 60 µg/mL (≈ 29.3 µM); MIC S. aureus ATCC 25923 ([2]; ATCC 25923): 100 µg/mL; MIC S. aureus ATCC 25923 ([2]; Table 1, value in brackets): 50 µM; MIC S. aureus ([2]; Table 12): 100 µg/mL (≈ 48.9 µM) |
| CC(=O)NCSC[C@H](NC(=O)[C@H](CCCCN)NC(=O)[C@@H](N)Cc1ccccc1)C(=O)N[C@@H](CCCNC(=N)N)C(=O)N[C@@H](CCCNC(=N)N)C(=O)N[C@@H](Cc1c[nH]c2ccccc12)C(=O)N[C@@H](CCC(N)=O)C(=O)N[C@@H](Cc1c[nH]c2ccccc12)C(=O)N[C@@H](CCCNC(=N)N)C(=O)N[C@@H](C)C(=O)N[C@@H](CCCCN)C(=O)N[C@@H](CCCCN)C(=O)N[C@@H](CC(C)C)C(=O)NCC(=O)N[C@@H](C)C(=O)O [LFB A10] (H-FKC(Acm)RRWQWRAKKLGA-OH) | 140 (≈ 69.8 µM) | >200 |  |
| CSCC[C@H](NC(=O)[C@H](CCC(=O)O)NC(=O)[C@H](Cc1c[nH]c2ccccc12)NC(=O)[C@H](CCC(N)=O)NC(=O)[C@H](Cc1c[nH]c2ccccc12)NC(=O)[C@H](CCCNC(=N)N)NC(=O)[C@H](CC(C)C)NC(=O)[C@H](CSCNC(C)=O)NC(=O)[C@H](CCCCN)NC(=O)[C@@H](N)CCC(=O)O)C(=O)N[C@@H](CCCNC(=N)N)C(=O)N[C@@H](CCCCN)C(=O)N[C@@H](Cc1ccc(O)cc1)C(=O)NCC(=O)NCC(=O)O [LFM W8 Y13] (H-EKC(Acm)LRWQWEMRKYGG-OH; N-terminus and C-terminus assumed) | >1000 | >1000 |  |
| CSCC[C@H](NC(=O)[C@H](CCCNC(=N)N)NC(=O)[C@H](Cc1c[nH]c2ccccc12)NC(=O)[C@H](CCC(N)=O)NC(=O)[C@H](Cc1c[nH]c2ccccc12)NC(=O)[C@H](CCCNC(=N)N)NC(=O)[C@H](CCCNC(=N)N)NC(=O)[C@@H](N)CSCNC(C)=O)C(=O)N[C@@H](CCCCN)C(=O)N[C@@H](CCCCN)C(=O)N[C@@H](CC(C)C)C(=O)NCC(=O)N[C@@H](C)C(=O)O [LFB 19-31] (H-C(Acm)RRWQWRMKKLGA-OH; N-terminus assumed) | 200 (≈ 112 µM) | >250 | MIC E. coli ATCC 25922 ([1]; ATCC 25922): 200 µg/mL; MIC E. coli ATCC 25922 ([1]; Table 1, value in brackets): 120 µM; MIC S. aureus ATCC 25923 ([2]; ATCC 25923): > 250 µg/mL; MIC S. aureus ATCC 25923 ([2]; Table 1, value in brackets): > 150 µM |
| CSCC[C@H](NC(=O)[C@H](CCCNC(=N)N)NC(=O)[C@H](Cc1c[nH]c2ccccc12)NC(=O)[C@H](CCC(N)=O)NC(=O)[C@H](Cc1c[nH]c2ccccc12)NC(=O)[C@H](CCCNC(=N)N)NC(=O)[C@H](CCCNC(=N)N)NC(=O)[C@H](CSCNC(C)=O)NC(=O)[C@H](CCCCN)NC(=O)[C@H](C)N)C(=O)N[C@@H](CCCCN)C(=O)N[C@@H](CCCCN)C(=O)N[C@@H](CC(C)C)C(=O)NCC(=O)N[C@@H](C)C(=O)O [LFB A1] (H-AKC(Acm)RRWQWRMKKLGA-OH) | 70 (≈ 35.2 µM) | >200 |  |
| RWWRYWR-NH2 [LFM 18-24 R1, 7 W2,3, 6Y5NH2, ARG-TRP-TRP-ARG-TYR-TRP-ARG-CONH2] | 10 |  | MIC E. coli ([1]; Table 14, peptides with a proportion of D amino acids): 10 µg/mL |

Reference: patent US20030022821A1, “Bioactive peptides” (priority 1998, published 2003)
